Laboratory results published in ChEMBL document CHEMBL1201862, “PubChem BioAssay data set” (2004).
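Growth conditions: 96-well plates. Treatment: test compound, 48 hours, 5 concentrations. Analysis: linear interpolation between bracketing concentrations; unreached endpoints set to highest concentration. Here, GI50 denotes the concentration required for 50% inhibition of growth.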 Activity calls are given as the source filed them. Rule as the data show it: active = GI50 up to about 1.1 µM and inactive = higher.

Assays:
Assay in all cases: inhibition of tumour cell growth, NCI panel, 48 h
[1] = test system: MDA-MB-435
[2] = test system: Hs-578T
[3] = test system: SN12C
[4] = test system: RPMI-8226
[5] = test system: T47D
[6] = test system: U-251
[7] = test system: SK-MEL-5
[8] = test system: MDA-N
[9] = test system: MCF7
[10] = test system: PC-3
[11] = test system: IGROV-1
[12] = test system: CCRF-CEM
[13] = test system: NCI/ADR-RES
[14] = test system: OVCAR-5
[15] = test system: COLO 205
[16] = test system: Malme-3M
[17] = test system: TK-10
[18] = test system: 786-0
[19] = test system: DLD-1
[20] = test system: SF-268

Row | Structure (SMILES) | GI50 [1] | GI50 [2] | GI50 [3] | GI50 [4] | GI50 [5] | GI50 [6] | GI50 [7] | GI50 [8] | GI50 [9] | GI50 [10] | GI50 [11] | GI50 [12] | GI50 [13] | GI50 [14] | GI50 [15] | GI50 [16] | GI50 [17] | GI50 [18] | GI50 [19] | GI50 [20]
1 | CO/C(=N/N1CC1C(F)(F)F)c1ccncc1 (stereo not drawn) | > 100 µM (inactive) | > 100 µM (inactive) | > 100 µM (inactive) | > 100 µM (inactive) | > 100 µM (inactive) | > 100 µM (inactive) | > 100 µM (inactive) | > 100 µM (inactive) | > 100 µM (inactive) | > 10 µM (inactive) | > 100 µM (inactive) | 88.1 µM (inactive) | > 100 µM (inactive) | > 100 µM (inactive) | > 100 µM (inactive) | > 100 µM (inactive) |  |  |  | 
2 | CCOC1=C2N=C(Cc3ccc(F)cc3)NC2C(=O)c2ccccc21 (stereo not drawn) |  |  |  | 11.6 µM (inactive) |  | 33 µM (inactive) |  |  |  |  | 66.7 µM (inactive) | 8.26 µM (inactive) |  | 45.4 µM (inactive) | 23.3 µM (inactive) | 11.5 µM (inactive) | 32.6 µM (inactive) | 20.8 µM (inactive) | 27 µM (inactive) | 
3 | Clc1ccc2c(c1)CC1C[N+]3=C(CCCCC3)C1=C2 (stereo not drawn) | 59.2 µM (inactive) | 85.3 µM (inactive) | 80.4 µM (inactive) |  | 29.6 µM (inactive) | 23.7 µM (inactive) | 30.3 µM (inactive) | 94.2 µM (inactive) | 64 µM (inactive) | 42.1 µM (inactive) | 37.2 µM (inactive) | > 100 µM (inactive) | > 100 µM (inactive) | > 100 µM (inactive) | 28.9 µM (inactive) | 63 µM (inactive) | 69.2 µM (inactive) | > 100 µM (inactive) |  | 50.8 µM (inactive)
4 | O=C(O)CCC(NC(=O)c1ccc(Nc2nc3cc(C(F)(F)F)ccc3nc2C(=O)O)cc1)C(=O)O (stereo not drawn) | > 100 µM (inactive) | > 100 µM (inactive) |  | > 100 µM (inactive) | 48.3 µM (inactive) | > 100 µM (inactive) | 79.8 µM (inactive) | > 100 µM (inactive) | > 100 µM (inactive) | > 100 µM (inactive) | > 100 µM (inactive) | > 100 µM (inactive) | > 100 µM (inactive) | > 100 µM (inactive) | > 100 µM (inactive) | > 100 µM (inactive) | > 100 µM (inactive) | > 100 µM (inactive) |  | > 100 µM (inactive)
5 | C1CCC2(CC1)O[C@@H]1[C@@H](O2)[C@@H](O[C@H]2O[C@@H]3COC4(CCCCC4)O[C@H]3[C@@H]3OC4(CCCCC4)O[C@@H]23)O[C@@H]2COC3(CCCCC3)O[C@@H]12 | > 100 µM (inactive) | > 100 µM (inactive) | > 100 µM (inactive) | 36.6 µM (inactive) | > 100 µM (inactive) | > 100 µM (inactive) | > 100 µM (inactive) | > 100 µM (inactive) | > 100 µM (inactive) | > 100 µM (inactive) | > 100 µM (inactive) | > 100 µM (inactive) | > 100 µM (inactive) | > 100 µM (inactive) | > 100 µM (inactive) | > 100 µM (inactive) | > 100 µM (inactive) | > 100 µM (inactive) |  | > 100 µM (inactive)
6 | O=C1NC2(CCCCC2)C2CCCCCC12 (stereo not drawn) |  |  | > 100 µM (inactive) |  |  | > 100 µM (inactive) |  |  |  |  | > 100 µM (inactive) |  |  | > 100 µM (inactive) |  | > 100 µM (inactive) | > 100 µM (inactive) |  | > 100 µM (inactive) | > 100 µM (inactive)
7 | Cc1c(Cl)cccc1NC(=O)/C=C/c1ccccc1 | > 100 µM (inactive) | 38.3 µM (inactive) | > 100 µM (inactive) | 97.9 µM (inactive) | > 100 µM (inactive) | > 100 µM (inactive) | > 100 µM (inactive) | > 100 µM (inactive) | > 100 µM (inactive) | > 100 µM (inactive) | > 100 µM (inactive) | > 100 µM (inactive) |  | > 100 µM (inactive) | > 100 µM (inactive) | > 100 µM (inactive) | > 100 µM (inactive) | 62.7 µM (inactive) |  | 74.1 µM (inactive)
8 | Cn1c2c(c3ccccc31)CCN(CCCCN1CCCCC1)C2=O |  |  | > 100 µM (inactive) | > 100 µM (inactive) |  | > 100 µM (inactive) | > 100 µM (inactive) |  |  |  | > 100 µM (inactive) | > 100 µM (inactive) |  | > 100 µM (inactive) | > 100 µM (inactive) |  | > 100 µM (inactive) | > 100 µM (inactive) | > 100 µM (inactive) | 51.1 µM (inactive)
9 | Cc1ccc([N+](=O)[O-])cc1S(=O)(=O)Nc1ccc(C2=NNC(c3cccs3)C2)cc1 (stereo not drawn) | 35.6 µM (inactive) | 58.2 µM (inactive) | 29.2 µM (inactive) | 16.6 µM (inactive) | 4.85 µM (inactive) |  | 17.4 µM (inactive) | 34.9 µM (inactive) | 13.7 µM (inactive) | 33.3 µM (inactive) | 58.9 µM (inactive) | 20.2 µM (inactive) | 26.5 µM (inactive) | 58.9 µM (inactive) | 6.87 µM (inactive) | 23.4 µM (inactive) |  | 31.3 µM (inactive) |  | 36.8 µM (inactive)
10 | N#CC(=N)c1ncn(-c2ccccc2N)c1N | > 100 µM (inactive) | > 100 µM (inactive) | > 100 µM (inactive) | > 100 µM (inactive) | > 100 µM (inactive) | > 100 µM (inactive) | > 100 µM (inactive) | > 100 µM (inactive) | > 100 µM (inactive) | > 100 µM (inactive) | > 100 µM (inactive) | > 100 µM (inactive) | > 100 µM (inactive) | > 100 µM (inactive) | > 100 µM (inactive) | > 100 µM (inactive) | > 100 µM (inactive) | > 100 µM (inactive) |  | > 100 µM (inactive)
11 | COc1ccc([C@H]2C=[N+]([O-])O[C@H](OC3CCCC3)[C@@H]2OC(C)=O)cc1OC | 25.4 µM (inactive) | 29.9 µM (inactive) |  | 23.5 µM (inactive) | 16.1 µM (inactive) | 35 µM (inactive) | 13.1 µM (inactive) | 37.8 µM (inactive) | 22.3 µM (inactive) | 44.8 µM (inactive) | 18.3 µM (inactive) | 0.098 µM (active) | 31.8 µM (inactive) |  | 15.9 µM (inactive) | 25.9 µM (inactive) | 23.1 µM (inactive) |  |  | 33.7 µM (inactive)
12 | Fc1c(F)c(F)c(CSc2nc3ccccc3[nH]2)c(F)c1F | > 100 µM (inactive) | > 100 µM (inactive) | > 100 µM (inactive) | > 100 µM (inactive) | > 100 µM (inactive) | > 100 µM (inactive) | > 100 µM (inactive) | > 100 µM (inactive) | > 100 µM (inactive) | > 100 µM (inactive) | > 100 µM (inactive) | > 100 µM (inactive) | > 100 µM (inactive) | > 100 µM (inactive) | > 100 µM (inactive) | > 100 µM (inactive) | > 100 µM (inactive) |  |  | > 100 µM (inactive)
13 | COc1ccc2c(C)cc(N/N=C/c3sccc3C)nc2c1 | 16.6 µM (inactive) | 12.5 µM (inactive) | 7.11 µM (inactive) | 5.69 µM (inactive) | 7.76 µM (inactive) | 17.9 µM (inactive) | 6.24 µM (inactive) | 14.3 µM (inactive) | 11.4 µM (inactive) | 12.9 µM (inactive) | 5.82 µM (inactive) | 39.8 µM (inactive) | 10 µM (inactive) | 13.5 µM (inactive) | 3.91 µM (inactive) | 6.95 µM (inactive) | 17.1 µM (inactive) |  |  | 17.4 µM (inactive)
14 | CCOC(=O)NC(=O)c1cn(CCSCCOC(=O)NCCCCCCNC(=O)OCCSCCn2cc(C(=O)NC(=O)OCC)c(=O)[nH]c2=O)c(=O)[nH]c1=O |  |  | > 100 µM (inactive) |  |  | > 100 µM (inactive) | > 100 µM (inactive) |  |  |  | > 100 µM (inactive) | > 100 µM (inactive) |  |  | > 100 µM (inactive) | > 100 µM (inactive) | > 100 µM (inactive) |  | > 100 µM (inactive) | 
15 | O=C(NNC(=S)NCc1ccccc1)C12CC3CC(CC(C3)C1)C2 | 87.3 µM (inactive) | > 100 µM (inactive) | > 100 µM (inactive) | 45.1 µM (inactive) | 49.2 µM (inactive) | 49.8 µM (inactive) |  | 67.9 µM (inactive) | 61.4 µM (inactive) | 25.8 µM (inactive) | > 100 µM (inactive) | 24.3 µM (inactive) | 89.1 µM (inactive) | > 100 µM (inactive) | 20.4 µM (inactive) | > 100 µM (inactive) | > 100 µM (inactive) | 96.8 µM (inactive) |  | 58.9 µM (inactive)
16 | CN(C)C/C=C(/c1ccc(Br)cc1)c1cccnc1 | 32.9 µM (inactive) | 48 µM (inactive) | > 100 µM (inactive) | 34.7 µM (inactive) | 58.7 µM (inactive) | 98.4 µM (inactive) | 19.7 µM (inactive) | 38.3 µM (inactive) | 63.8 µM (inactive) | > 100 µM (inactive) | > 100 µM (inactive) |  | 69.5 µM (inactive) | > 100 µM (inactive) | 16.6 µM (inactive) | 20.2 µM (inactive) | 65.9 µM (inactive) | 94 µM (inactive) |  | 65.8 µM (inactive)
17 | c1ccc(/N=C2/SC3=Nc4cccc5cccc(c45)N3/C2=N/c2ccccc2)cc1 | > 100 µM (inactive) | > 100 µM (inactive) | > 100 µM (inactive) | > 100 µM (inactive) | > 100 µM (inactive) | > 100 µM (inactive) | > 100 µM (inactive) | > 100 µM (inactive) | > 100 µM (inactive) | > 100 µM (inactive) | > 100 µM (inactive) | 54.1 µM (inactive) | > 100 µM (inactive) | > 100 µM (inactive) | > 100 µM (inactive) | > 100 µM (inactive) |  |  |  | 
